Source: patent publication US6423689B1, “Peptidyl calcium channel blockers” (Warner-Lambert Company, priority 1997, dated 2002)
*1 amine or outer side, *2 acyl side, *3 side chain or, on linkers, in order; H or OH if unused. Where a SMILES comes first, the peptide text is derived from it. The star is where a group is joined. Piperidide = C1CCN(*)CC1; CO = O=C([*:1])[*:2]; Bn = c1ccc(C*)cc1; OtBu = CC(C)(C)O*

Biological target: T1, N-type Ca2+ channels in IMR-32 cells (Homo sapiens, UniProt Q00975)
T1 construct: host or cells: IMR-32 cells, differentiated with dibutyryl cAMP and bromodeoxyuridine
Assay: Inhibition of N-type calcium flux in IMR-32 cells (Indo-1 fluorescence, nitrendipine present)
Format: cell-based
Conditions: for inhibition at 1 µM / inhibition at 10 µM: IMR-32; for IC50: IMR-32 cells, 5 μM nitrendipine, K+ depolarization
Outline: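 With L-type flux blocked by 5 μM nitrendipine, N-type Ca2+ entry was read as the Indo-1 emission ratio (400/490 nm, excitation 350 nm) at 30° C after KCl depolarization.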

T1 sequence (Q00975 whole entry): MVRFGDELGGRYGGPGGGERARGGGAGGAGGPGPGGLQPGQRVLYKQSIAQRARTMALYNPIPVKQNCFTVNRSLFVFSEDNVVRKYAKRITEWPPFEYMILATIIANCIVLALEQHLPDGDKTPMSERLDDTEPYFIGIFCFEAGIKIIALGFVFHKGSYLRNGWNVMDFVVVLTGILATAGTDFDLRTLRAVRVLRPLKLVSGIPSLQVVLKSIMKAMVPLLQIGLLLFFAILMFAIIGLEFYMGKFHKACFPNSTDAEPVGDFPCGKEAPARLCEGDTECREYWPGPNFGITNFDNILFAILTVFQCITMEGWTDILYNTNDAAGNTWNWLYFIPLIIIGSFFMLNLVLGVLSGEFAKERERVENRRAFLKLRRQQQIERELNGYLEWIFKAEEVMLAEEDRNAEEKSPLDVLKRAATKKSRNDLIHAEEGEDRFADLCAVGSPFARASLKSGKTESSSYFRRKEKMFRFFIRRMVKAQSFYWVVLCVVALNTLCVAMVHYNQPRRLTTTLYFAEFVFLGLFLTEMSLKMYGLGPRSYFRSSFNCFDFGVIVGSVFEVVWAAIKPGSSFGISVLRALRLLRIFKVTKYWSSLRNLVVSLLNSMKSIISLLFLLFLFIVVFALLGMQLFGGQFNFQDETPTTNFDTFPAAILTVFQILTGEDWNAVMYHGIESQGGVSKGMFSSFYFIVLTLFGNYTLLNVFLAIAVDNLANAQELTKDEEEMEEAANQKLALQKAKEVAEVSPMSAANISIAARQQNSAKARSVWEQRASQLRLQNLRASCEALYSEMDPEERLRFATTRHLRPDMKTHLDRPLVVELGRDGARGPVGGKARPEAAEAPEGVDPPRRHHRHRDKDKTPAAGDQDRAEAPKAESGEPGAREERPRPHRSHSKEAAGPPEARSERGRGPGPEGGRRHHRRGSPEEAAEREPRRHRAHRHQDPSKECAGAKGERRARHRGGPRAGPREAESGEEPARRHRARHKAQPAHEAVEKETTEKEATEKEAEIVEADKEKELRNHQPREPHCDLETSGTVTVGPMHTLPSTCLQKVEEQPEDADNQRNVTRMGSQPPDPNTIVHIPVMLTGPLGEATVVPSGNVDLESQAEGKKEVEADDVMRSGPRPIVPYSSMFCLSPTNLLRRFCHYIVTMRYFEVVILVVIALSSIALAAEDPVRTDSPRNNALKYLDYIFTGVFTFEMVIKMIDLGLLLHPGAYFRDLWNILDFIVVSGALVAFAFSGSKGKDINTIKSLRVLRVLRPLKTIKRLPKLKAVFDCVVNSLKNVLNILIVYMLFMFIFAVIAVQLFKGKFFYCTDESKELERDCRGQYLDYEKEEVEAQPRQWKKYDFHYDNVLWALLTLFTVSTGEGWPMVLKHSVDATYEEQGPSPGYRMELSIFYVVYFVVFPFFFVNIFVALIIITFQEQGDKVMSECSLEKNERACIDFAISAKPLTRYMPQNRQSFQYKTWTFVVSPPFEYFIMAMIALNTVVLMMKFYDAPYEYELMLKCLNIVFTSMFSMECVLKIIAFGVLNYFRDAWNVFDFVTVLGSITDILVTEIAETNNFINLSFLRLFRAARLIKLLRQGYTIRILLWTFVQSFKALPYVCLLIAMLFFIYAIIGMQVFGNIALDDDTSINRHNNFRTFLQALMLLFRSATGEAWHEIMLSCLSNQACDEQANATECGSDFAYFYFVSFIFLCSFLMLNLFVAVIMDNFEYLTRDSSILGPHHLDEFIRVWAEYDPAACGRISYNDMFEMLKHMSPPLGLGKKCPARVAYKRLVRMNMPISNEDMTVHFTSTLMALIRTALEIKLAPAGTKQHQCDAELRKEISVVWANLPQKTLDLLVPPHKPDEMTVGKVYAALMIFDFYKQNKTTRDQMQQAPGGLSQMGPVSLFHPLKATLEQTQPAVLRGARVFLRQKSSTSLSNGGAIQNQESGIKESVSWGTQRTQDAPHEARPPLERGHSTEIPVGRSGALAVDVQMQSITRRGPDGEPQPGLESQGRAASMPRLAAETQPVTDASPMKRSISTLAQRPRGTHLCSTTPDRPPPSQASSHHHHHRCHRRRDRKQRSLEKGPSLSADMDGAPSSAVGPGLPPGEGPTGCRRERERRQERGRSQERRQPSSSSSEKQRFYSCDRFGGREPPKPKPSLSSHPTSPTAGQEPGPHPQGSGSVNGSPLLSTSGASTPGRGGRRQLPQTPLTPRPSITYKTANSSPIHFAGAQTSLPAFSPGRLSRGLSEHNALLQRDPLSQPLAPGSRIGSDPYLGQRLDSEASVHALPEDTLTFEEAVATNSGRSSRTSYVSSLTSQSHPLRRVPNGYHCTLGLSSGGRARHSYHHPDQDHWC
T1 sequence (P54289 25-956 partner limits assumed): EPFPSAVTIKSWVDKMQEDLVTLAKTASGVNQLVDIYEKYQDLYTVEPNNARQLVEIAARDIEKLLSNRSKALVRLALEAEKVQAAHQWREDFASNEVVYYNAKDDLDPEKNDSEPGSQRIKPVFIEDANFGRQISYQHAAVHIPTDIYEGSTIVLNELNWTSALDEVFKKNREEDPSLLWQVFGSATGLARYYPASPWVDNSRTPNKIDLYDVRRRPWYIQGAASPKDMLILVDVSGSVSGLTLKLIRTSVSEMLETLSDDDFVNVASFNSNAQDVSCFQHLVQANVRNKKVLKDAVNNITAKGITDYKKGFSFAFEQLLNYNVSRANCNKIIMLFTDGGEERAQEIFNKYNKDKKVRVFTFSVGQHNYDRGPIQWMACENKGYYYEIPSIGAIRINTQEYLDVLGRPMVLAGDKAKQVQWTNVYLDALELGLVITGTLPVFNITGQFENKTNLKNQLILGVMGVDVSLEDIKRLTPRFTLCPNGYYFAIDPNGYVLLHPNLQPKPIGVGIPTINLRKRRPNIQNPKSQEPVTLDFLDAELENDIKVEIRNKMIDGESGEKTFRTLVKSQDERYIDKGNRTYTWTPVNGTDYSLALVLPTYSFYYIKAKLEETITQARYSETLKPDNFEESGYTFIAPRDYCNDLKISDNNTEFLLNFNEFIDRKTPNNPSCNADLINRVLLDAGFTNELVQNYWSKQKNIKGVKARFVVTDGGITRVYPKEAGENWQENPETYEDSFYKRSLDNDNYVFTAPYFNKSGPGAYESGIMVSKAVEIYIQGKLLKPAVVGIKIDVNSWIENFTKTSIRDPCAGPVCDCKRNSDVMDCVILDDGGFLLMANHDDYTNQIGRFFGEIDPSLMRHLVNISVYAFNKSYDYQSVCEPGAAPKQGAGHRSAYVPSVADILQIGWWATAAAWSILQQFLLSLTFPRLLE
T1 sequence (P54289 957-1103 partner limits assumed): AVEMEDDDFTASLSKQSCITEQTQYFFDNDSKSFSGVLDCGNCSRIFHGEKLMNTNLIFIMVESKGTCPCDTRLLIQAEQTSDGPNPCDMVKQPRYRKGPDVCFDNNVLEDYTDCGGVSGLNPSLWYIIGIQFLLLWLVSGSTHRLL
T1 sequence (P54284 whole entry partner): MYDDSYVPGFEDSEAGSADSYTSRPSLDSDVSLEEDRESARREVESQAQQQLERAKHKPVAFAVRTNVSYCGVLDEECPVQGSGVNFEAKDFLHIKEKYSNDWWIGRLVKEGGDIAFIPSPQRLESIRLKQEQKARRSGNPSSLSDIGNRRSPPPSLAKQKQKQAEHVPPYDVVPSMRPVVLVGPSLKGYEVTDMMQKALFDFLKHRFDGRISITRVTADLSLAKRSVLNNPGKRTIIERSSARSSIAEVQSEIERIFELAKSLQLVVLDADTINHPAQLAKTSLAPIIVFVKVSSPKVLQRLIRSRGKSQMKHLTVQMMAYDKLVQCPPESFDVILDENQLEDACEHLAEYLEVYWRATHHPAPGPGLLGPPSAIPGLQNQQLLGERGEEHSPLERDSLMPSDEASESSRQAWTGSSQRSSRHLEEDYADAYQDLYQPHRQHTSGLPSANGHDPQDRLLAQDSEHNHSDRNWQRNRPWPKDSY

Row | Structure (SMILES) | IC50 | also measured
1 | COc1cc(C(=O)NC(CC(C)C)C(=O)N[C@@H](Cc2ccc(OCc3ccccc3)cc2)C(=O)OC(C)(C)C)cc(OC)c1OC (stereo in doubt) [Example 92, [S(R*,R*)]-3-(4-Benzyloxy-phenyl)-2-[4-methyl-2-(3,4,5-trimethoxy-benzoylamino)-pentanoylamino]-propionic acid tert-butyl ester] | – | Inhibition of Calcium Flux in IMR-32 Cells % Inhibition at 1 μM: 1%; Inhibition of Calcium Flux in IMR-32 Cells % Inhibition at 10 μM (10 μM): 65%
2 | CC(C)C[C@H](NC(=O)N1CCCCC1)C(=O)N[C@@H](Cc1ccc(OCc2ccccc2)cc1)C(=O)OC(C)(C)C [Example 33, [S-(R*,R*)]-3-(4-Benzyloxy-phenyl)-2-{4-methyl-2-[(piperidine-1-carbonyl)-amino]-pentanoylamino}-propionic acid tert-butyl ester] ({Piperidide-CO}-Leu-Tyr(Bn)-OtBu) | 2.2 µM | inhibition at 1 µM: 48%; inhibition at 10 µM: 79%
3 | CC(C)C[C@H](NC(=O)N[C@H](C)c1ccccc1)C(=O)N[C@@H](Cc1ccc(OCc2ccccc2)cc1)C(=O)OC(C)(C)C [Example 63, 3-(4-Benzyloxy-phenyl)-(S)-2-{4-methyl-(S)-2-[3-[(R)-1-phenyl-ethyl]-ureido]-pentanoylamino}-propionic acid tert-butyl ester] | – | inhibition at 1 µM: 33%
4 | COC(=O)C(Cc1ccccc1)NC(=O)NC(CC(C)C)C(=O)NC(Cc1ccc(OCc2ccccc2)cc1)C(=O)OC(C)(C)C (stereo not drawn) [Example 66, [S-(R*,R*)]-3-(4-Benzyloxy-phenyl)-{2-[3-(1-methoxycarbonyl-2-phenyl-ethyl)-ureido]-4-methyl-pentanoylamino}-propionic acid tert-butyl ester] ({OMe-Phe-CO}-Leu-Tyr(Bn)-OtBu; configuration not given here) | – | Inhibition of Calcium Flux in IMR-32 Cells % Inhibition at 1 μM: 42%
5 | O=C(NCCN1CCCCC1)[C@H](Cc1ccc(OCc2ccccc2)cc1)NC(=O)[C@@H]1CCCN1C(=O)N1CCCCCC1 [Example 152, [S-(R*,R*)]-1-(Azepane-1-carbonyl)-pyrrolidine-2-carboxylic acid [2-(4-benzyloxy-phenyl)-1-(2-piperidin-1-yl-ethylcarbamoyl)-ethyl]-amide] | 1.9 µM | –
6 | CC(C)(C)NC(=O)[C@H](Cc1ccc(OCc2ccccc2)cc1)NC(=O)[C@@H]1CCCN1C(=O)N1CCCCCC1 [Example 153, [S-(R*,R*)]-1-(Azepane-1-carbonyl)-pyrrolidine-2-carboxylic acid [2-(4-benzyloxy-phenyl)-1tert-butylcarbamoyl-ethyl]-amide] | 3.7 µM | –
7 | CSCC[C@H](NC(=O)N1CCCCCC1)C(=O)N[C@@H](Cc1ccc(OCc2ccccc2)cc1)C(=O)NCCN1CCCCC1 [Example 154, [S-(R*,R*)]-Azepane-1-carboxylic acid {1-[2-(4-benzyloxy-phenyl)-1-(2-piperidin-1-ylethylcarbamoyl)-ethylcarbamoyl]-3-methylsulfanyl-propyl}-amide] | 9.6 µM | –
8 | CSCC[C@H](NC(=O)N1CCCCCC1)C(=O)N[C@@H](Cc1ccc(OCc2ccccc2)cc1)C(=O)NC(C)(C)C [Example 155, [S-(R*,R*)]-Azepane1-carboxylic acid {1-[2-(4-benzyloxy-phenyl)-1-tert-butylcarbamoyl-ethylcarbamoyl]-3-methylsulfanyl-propyl}-amide] | 2.5 µM | –
9 | O=C(NCCN1CCCCC1)[C@H](Cc1ccc(OCc2ccccc2)cc1)NC(=O)[C@H](Cc1ccc(O)cc1)NC(=O)N1CCCCCC1 [Example 156, [S-(R*,R*)]-Azepane-1-carboxylic acid [1-[2-(4-benzyloxy-phenyl)-1-(2-piperidin-1-ylethylcarbamoyl)-ethylcarbamoyl]-2-(4-hydroxy-phenyl)-ethyl]-amide] | 5.3 µM | –
10 | O=C(NCCN1CCCCC1)[C@H](Cc1ccc(OCc2ccccc2)cc1)NC(=O)[C@H](Cc1ccc(Br)cc1)NC(=O)N1CCCCCC1 [Example 157, [S-(R*,R*)]-Azepane-1-carboxylic acid [1-[2-(4-benzyloxy-phenyl)-1-(2-piperidin-1-ylethylcarbamoyl)-ethylcarbamoyl]-2-(4-bromo-phenyl)-ethyl]-amide] | 2.3 µM | –
11 | CC(C)(C)NC(=O)[C@H](Cc1ccc(OCc2ccccc2)cc1)NC(=O)[C@H](Cc1ccc(O)cc1)NC(=O)N1CCCCCC1 [Example 160, [S-(R*,R*)]-Azepane-1-carboxylic acid [1-[2-(4-benzyloxy-phenyl)-1-tert-butylcarbamoyl-ethylcarbamoyl]-2-(4-hydroxy-phenyl)-ethyl]-amide] | 2.5 µM | –
12 | CC(C)(C)NC(=O)[C@H](Cc1ccc(OCc2ccccc2)cc1)NC(=O)[C@H](Cc1ccc(OC(C)(C)C)cc1)NC(=O)N1CCCCCC1 [Example 163, [S-(R*,R*)]-Azepane-1-carboxylic acid [1-[2-(4-benzyloxy-phenyl)-1-tert-butylcarbamoyl-ethylcarbamoyl]-2-(4-tert-butoxy-phenyl)-ethyl]-amide] | 0.49 µM | –
13 | CCCNC(=O)[C@H](Cc1ccc(OCc2ccccc2)cc1)NC(=O)[C@H](CC(C)C)NC(=O)N1CCCCCC1 [Example 169, [S-(R*,R*)]-Azepane-1-carboxylic acid {1-[2-(4-benzyloxy-phenyl)-1-propylcarbamoyl-ethylcarbamoyl]-3-methyl-butyl}-amide] | 1.6 µM | –
14 | CC(C)C[C@H](NC(=O)N1CCCCCC1)C(=O)N[C@@H](Cc1ccc(OCc2ccccc2)cc1)C(=O)NCCc1c[nH]cn1 [Example 172, [S-(R*,R*)]-Azepane-1-carboxylic acid (1-{2-(4-benzyloxy-phenyl)-1-[2-(1H-imidazol-4-yl)ethylcarbamoyl]-ethylcarbamoyl}-3-methyl-butyl)-amide] | 2.3 µM | –
15 | CC(C)C[C@H](NC(=O)N1CCCCCC1)C(=O)N[C@@H](Cc1ccc(OCc2ccccc2)cc1)C(=O)NCCN(C)C [Example 175, [S-(R*,R*)]-Azepane-1-carboxylic acid {1-[2-(4-benzyloxy-phenyl)-1-(2-dimethylamino-ethylcarbamoyl)-ethylcarbamoyl]-3-methyl-butyl}-amide] | 2.7 µM | –

Second part, led by results:

Row | IC50 | Structure (SMILES) | also measured
16 | 0.74 µM | CSCCC(CO)NC(=O)[C@H](Cc1ccc(OCc2ccccc2)cc1)NC(=O)C(CC(C)C)NC(=O)N1CCCCCC1 (stereo in doubt) [Example 238, Azepane-1-carboxylic acid {(R)-1-[(S)-2-(4-benzyloxy-phenyl)-(S)-1-(1-hydroxymethyl-3-methylsulfanyl-propylcarbamoyl)-ethylcarbamoyl]-3-methyl-butyl}-amide] | inhibition at 1 µM: 62%; inhibition at 10 µM: 95%
17 | 0.72 µM | CC(C)[C@H](NC(=O)N1CCCCCC1)C(=O)N[C@@H](Cc1ccc(OCc2ccccc2)cc1)C(=O)OC(C)(C)C [Example 6, [S-(R*,R*)]-2-{2-[(Azepane-1-carbonyl)-amino]-3-methyl-butyrylamino}-3-(4-benzyloxy-phenyl)-propionic acid tert-butyl ester] | inhibition at 1 µM: 63%; inhibition at 10 µM: 98%
18 | 0.81 µM | CC(C)C[C@H](NC(=O)N1CCCCCC1)C(=O)N[C@@H](Cc1ccc(OCc2ccc(C#N)cc2)cc1)C(=O)OC(C)(C)C [Example 27, [S-(R*,R*)]-2-{2-[(Azepane-1-carbonyl)-amino]-4-methyl-pentanoylamino}-3-[4-(4-cyano-benzyloxy)-phenyl]-propionic acid tert-butyl ester] | inhibition at 1 µM: 51%; inhibition at 10 µM: 92%
19 | 0.82 µM | COc1ccc(COc2ccc(C[C@H](NC(=O)[C@H](CC(C)C)NC(=O)N3CCCCCC3)C(=O)OC(C)(C)C)cc2)cc1 [Example 32, [S-(R*,R*)]-2-{2-[(Azepane-1-carbonyl)-amino]-4-methyl-pentanoylamino}-3-[4-(4-methoxy-benzyloxy)-phenyl]-propionic acid tert-butyl ester] | inhibition at 1 µM: 52%; inhibition at 10 µM: 86%
20 | 1.1 µM | Cc1noc(C)c1S(=O)(=O)N[C@@H](CC(C)C)C(=O)N[C@@H](Cc1ccc(OCc2ccccc2)cc1)C(=O)OC(C)(C)C [Example 111, [S-(R*,R*)]-3-(4-Benzyloxy-phenyl)-2-[2-(3,5-dimethyl-isoxazole-4-sulfonylamino)-4-methyl-pentanoylamino]-propionic acid tert-butyl ester] | inhibition at 1 µM: 50%; inhibition at 10 µM: 96%
21 | 0.9 µM | CC(C)(C)NC(=O)[C@H](Cc1ccc(OCc2ccccc2)cc1)NC(=O)[C@H](CCCCC(=O)OC(C)(C)C)NC(=O)N1CCCCCC1 [Example 164, [S-(R*,R*)]-6-[(Azepane-1-carbonyl)-amino]-6-[2-(4-benzyloxy-phenyl)-1-tert-butylcarbamoyl-ethylcarbamoyl]-hexanoic acid tert-butyl ester] | –
22 | 1.3 µM | CC(C)C[C@H](NC(=O)N1CCCCCC1)C(=O)N[C@@H](Cc1ccc(OCc2ccccc2)cc1)C(=O)N1CCOCC1 [Example 166, [S-(R*,R*)]-Azepane-1-carboxylic acid {1-[1-(4-benzyloxy-benzyl)-2-morpholin-4-yl-2-oxo-ethylcarbamoyl]-3-methyl-butyl}-amide] | –
23 | 0.68 µM | CCCCCCNC(=O)[C@H](Cc1ccc(OCc2ccccc2)cc1)NC(=O)[C@H](CC(C)C)NC(=O)N1CCCCCC1 [Example 168, [S-(R*,R*)]-Azepane-1-carboxylic acid {1-[2-(4-benzyloxy-phenyl)-1-hexylcarbamoyl-ethylcarbamoyl]-3-methyl-butyl}-amide] | –
24 | 1.3 µM | CC(C)C[C@H](NC(=O)N1CCCCCC1)C(=O)N[C@@H](Cc1ccc(OCc2ccccc2)cc1)C(=O)NCCN1CCCC1=O [Example 170, [S-(R*,R*)]-Azepane-1-carboxylic acid (1-{2-(4-benzyloxy-phenyl)-1-[2-(2-oxo-pyrrolidin-1yl)-ethylcarbamoyl]-ethylcarbamoyl}-3-methyl-butyl)-amide] | –
